In ChEMBL document CHEMBL3217615, “Novel 3,5-bis(arylidiene)-4-piperidone based monocarbonyl analogs of curcumin: anticancer activity evaluation and mode of action study” (2014):

Assays:
Type in all cases: functional
A498 [1] = assay: Growth inhibition of human A498 cells after 48 hrs by sulforhodamine B assay; settings: A498, 48 h; for CC50: read-out: LC50 (the source's name)
DU-145 = assay: Growth inhibition of human DU145 cells assessed as cell growth at 10^-4 M after 48 hrs by sulforhodamine B assay; settings: DU-145, 48 h, read-out: Activity
CAKI-1 [2] = assay: Growth inhibition of human CAKI-1 cells assessed as cell growth at 10^-6 M after 48 hrs by sulforhodamine B assay; settings: CAKI-1, 48 h, read-out: Activity
SW-620 = assay: Growth inhibition of human SW620 cells assessed as cell growth at 10^-4 M after 48 hrs by sulforhodamine B assay; settings: SW-620, 48 h, read-out: Activity
SN12C = assay: Growth inhibition of human SN12C cells assessed as cell growth at 10^-8 M after 48 hrs by sulforhodamine B assay; settings: for growth at 0.01 µM: read-out: Activity; for TGI: read-out: pTGI (converted)
786-0 = assay: Growth inhibition of human 786-0 cells assessed as cell growth at 10^-4 M after 48 hrs by sulforhodamine B assay; settings: 786-0, 48 h, read-out: Activity
SK-MEL-5 = assay: Growth inhibition of human SK-MEL-5 cells assessed as cell growth at 10^-6 M after 48 hrs by sulforhodamine B assay; settings: SK-MEL-5, 48 h, read-out: Activity
[3] = Growth inhibition of human MOLT4 cells assessed as cell growth at 10^-4 M after 48 hrs by sulforhodamine B assay; settings: MOLT-4, 48 h, read-out: Activity
[4] = Growth inhibition of human OVCAR8 cells assessed as cell growth at 10^-8 M after 48 hrs by sulforhodamine B assay; settings: OVCAR-8, 48 h; for growth at 0.01 µM: read-out: Activity; for TGI: read-out: pTGI (converted)
RPMI-8226 [5] = assay: Growth inhibition of human RPMI8226 cells assessed as cell growth at 10^-7 M after 48 hrs by sulforhodamine B assay; settings: RPMI-8226, 48 h, read-out: Activity
[6] = Growth inhibition of human OVCAR5 cells assessed as cell growth at 10^-7 M after 48 hrs by sulforhodamine B assay; settings: OVCAR-5, 48 h, read-out: Activity
HT-29 [7] = assay: Growth inhibition of human HT-29 cells assessed as cell growth at 10^-8 M after 48 hrs by sulforhodamine B assay; settings: HT-29, 48 h; for growth at 0.01 µM: read-out: Activity; for TGI: read-out: pTGI (converted)
SK-MEL-2 = assay: Growth inhibition of human SK-MEL-2 cells assessed as cell growth at 10^-8 M after 48 hrs by sulforhodamine B assay; settings: SK-MEL-2, 48 h; for growth at 0.01 µM: read-out: Activity; for TGI: read-out: pTGI (converted)
NCI-H460 = assay: Growth inhibition of human NCI-H460 cells assessed as cell growth at 10^-7 M after 48 hrs by sulforhodamine B assay; settings: NCI-H460, 48 h, read-out: Activity
MDA-MB-435 = assay: Growth inhibition of human MDA-MB-435 cells assessed as cell growth at 10^-6 M after 48 hrs by sulforhodamine B assay; settings: MDA-MB-435, 48 h, read-out: Activity
[8] = Growth inhibition of human UACC62 cells after 48 hrs by sulforhodamine B assay; settings: UACC-62, 48 h; for CC50: read-out: LC50 (the source's name)
[9] = Growth inhibition of human HCT15 cells after 48 hrs by sulforhodamine B assay; settings: HCT-15, 48 h; for CC50: read-out: LC50 (the source's name)
RPMI-8226 [10] = assay: Growth inhibition of human RPMI8226 cells after 48 hrs by sulforhodamine B assay; settings: RPMI-8226, 48 h
[11] = Growth inhibition of human OVCAR3 cells assessed as cell growth at 10^-8 M after 48 hrs by sulforhodamine B assay; settings: OVCAR-3, 48 h; for growth at 0.01 µM: read-out: Activity; for TGI: read-out: pTGI (converted)
SF-268 [12] = assay: Growth inhibition of human SF268 cells after 48 hrs by sulforhodamine B assay; settings: SF-268, 48 h; for CC50: read-out: LC50 (the source's name)
[13] = Growth inhibition of human NCI-ADR-RES cells assessed as cell growth at 10^-8 M after 48 hrs by sulforhodamine B assay; settings: for growth at 0.01 µM: read-out: Activity; for TGI: read-out: pTGI (converted)
[14] = Growth inhibition of human UO31 cells assessed as cell growth at 10^-7 M after 48 hrs by sulforhodamine B assay; settings: UO-31, 48 h, read-out: Activity
COLO 205 = assay: Growth inhibition of human COLO205 cells assessed as cell growth at 10^-7 M after 48 hrs by sulforhodamine B assay; settings: COLO 205, 48 h, read-out: Activity
NCI-H322M = assay: Growth inhibition of human NCI-H322M cells assessed as cell growth at 10^-8 M after 48 hrs by sulforhodamine B assay; settings: for growth at 0.01 µM: read-out: Activity; for TGI: read-out: pTGI (converted)
A498 [15] = assay: Growth inhibition of human A498 cells assessed as cell growth at 10^-8 M after 48 hrs by sulforhodamine B assay; settings: A498, 48 h; for growth at 0.01 µM: read-out: Activity; for TGI: read-out: pTGI (converted)
SF-268 [16] = assay: Growth inhibition of human SF268 cells assessed as cell growth at 10^-7 M after 48 hrs by sulforhodamine B assay; settings: SF-268, 48 h, read-out: Activity
CAKI-1 [17] = assay: Growth inhibition of human CAKI-1 cells assessed as cell growth at 10^-4 M after 48 hrs by sulforhodamine B assay; settings: CAKI-1, 48 h, read-out: Activity
MDA-MB-231 = assay: Growth inhibition of human MDA-MB-231 cells assessed as cell growth at 10^-7 M after 48 hrs by sulforhodamine B assay; settings: MDA-MB-231, 48 h, read-out: Activity
A549 = assay: Growth inhibition of human A549/ATCC cells after 48 hrs by sulforhodamine B assay; settings: A549, 48 h; for CC50: read-out: LC50 (the source's name)
NCI-H23 = assay: Growth inhibition of human NCI-H23 cells assessed as cell growth at 10^-7 M after 48 hrs by sulforhodamine B assay; settings: NCI-H23, 48 h, read-out: Activity
HT-29 [18] = assay: Growth inhibition of human HT-29 cells assessed as cell growth at 10^-6 M after 48 hrs by sulforhodamine B assay; settings: HT-29, 48 h, read-out: Activity

O=C1/C(=C/c2ccc(Cl)cc2Cl)CN(S(=O)(=O)c2ccccc2)C/C1=C\c1ccc(Cl)cc1Cl
GI50 (A498 [1]): 0.727 µM
TGI (A498 [1]): 4.39 µM
CC50 (A498 [1]): > 100 µM
growth at 100 µM (DU-145): -10%
growth at 1 µM (CAKI-1 [2]): 77%
growth at 100 µM (SW-620): -27%
GI50 (SN12C): 0.245 µM
LC50 (SN12C): > 100 µM
growth at 0.01 µM (SN12C): 93%
TGI (SN12C): 0.724 µM
growth at 100 µM (786-0): -93%
growth at 1 µM (SK-MEL-5): 94%
growth at 100 µM [3]: -11%
GI50 [4]: 0.229 µM
LC50 [4]: > 100 µM
growth at 0.01 µM [4]: 99%
TGI [4]: 0.955 µM
growth at 0.1 µM (RPMI-8226 [5]): 91%
growth at 0.1 µM [6]: 94%
GI50 (HT-29 [7]): 0.295 µM
LC50 (HT-29 [7]): > 100 µM
growth at 0.01 µM (HT-29 [7]): 102%
TGI (HT-29 [7]): 0.851 µM
GI50 (SK-MEL-2): 6.03 µM
LC50 (SK-MEL-2): > 100 µM
growth at 0.01 µM (SK-MEL-2): 101%
TGI (SK-MEL-2): > 100 µM
growth at 0.1 µM (NCI-H460): 98%
growth at 1 µM (MDA-MB-435): 50%
GI50 [8]: 0.804 µM
TGI [8]: 2.31 µM
CC50 [8]: 5.81 µM
GI50 [9]: 0.247 µM
TGI [9]: 0.759 µM
CC50 [9]: > 100 µM
GI50 (RPMI-8226 [10]): 0.225 µM
LC50 (RPMI-8226 [10]): > 100 µM
TGI (RPMI-8226 [10]): 0.605 µM
GI50 [11]: 0.309 µM
LC50 [11]: 5.01 µM
growth at 0.01 µM [11]: 112%
TGI [11]: 0.813 µM
GI50 (SF-268 [12]): 0.447 µM
TGI (SF-268 [12]): > 100 µM
CC50 (SF-268 [12]): > 100 µM
GI50 [13]: 1.38 µM
LC50 [13]: > 100 µM
growth at 0.01 µM [13]: 105%
TGI [13]: > 100 µM
growth at 0.1 µM [14]: 93%
growth at 0.1 µM (COLO 205): 107%
GI50 (NCI-H322M): 0.676 µM
LC50 (NCI-H322M): > 100 µM
growth at 0.01 µM (NCI-H322M): 107%
TGI (NCI-H322M): 3.55 µM
GI50 (A498 [15]): 0.724 µM
LC50 (A498 [15]): > 100 µM
growth at 0.01 µM (A498 [15]): 67%
TGI (A498 [15]): 4.37 µM
growth at 0.1 µM (SF-268 [16]): 98%
growth at 100 µM (CAKI-1 [17]): -11%
growth at 0.1 µM (MDA-MB-231): 99%
GI50 (A549): 0.277 µM
TGI (A549): 0.887 µM
CC50 (A549): > 100 µM
growth at 0.1 µM (NCI-H23): 104%
growth at 1 µM (HT-29 [18]): -8%

Cc1ccc(S(=O)(=O)N2C/C(=C\c3cc(F)cc(F)c3)C(=O)/C(=C/c3cc(F)cc(F)c3)C2)cc1
GI50 (A498 [1]): 1.88 µM
TGI (A498 [1]): 4.05 µM
CC50 (A498 [1]): 8.76 µM
growth at 100 µM (DU-145): -87%
growth at 1 µM (CAKI-1 [2]): 16%
growth at 100 µM (SW-620): -74%
GI50 (SN12C): 0.339 µM
LC50 (SN12C): 4.27 µM
growth at 0.01 µM (SN12C): 95%
TGI (SN12C): 1.32 µM
growth at 100 µM (786-0): -95%
growth at 1 µM (SK-MEL-5): 3%
growth at 100 µM [3]: -27%
GI50 [4]: 0.302 µM
LC50 [4]: 16.2 µM
growth at 0.01 µM [4]: 95%
TGI [4]: 1.78 µM
growth at 0.1 µM (RPMI-8226 [5]): 17%
growth at 0.1 µM [6]: 93%
GI50 (HT-29 [7]): 0.229 µM
LC50 (HT-29 [7]): 3.16 µM
growth at 0.01 µM (HT-29 [7]): 105%
TGI (HT-29 [7]): 0.631 µM
GI50 (SK-MEL-2): 2 µM
LC50 (SK-MEL-2): 14.8 µM
growth at 0.01 µM (SK-MEL-2): 105%
TGI (SK-MEL-2): 4.68 µM
growth at 0.1 µM (NCI-H460): 104%
growth at 1 µM (MDA-MB-435): -18%
GI50 [8]: 0.212 µM
TGI [8]: 0.514 µM
CC50 [8]: 1.62 µM
GI50 [9]: 0.25 µM
TGI [9]: 1.3 µM
CC50 [9]: 30.7 µM
GI50 (RPMI-8226 [10]): 0.0372 µM
LC50 (RPMI-8226 [10]): 93.8 µM
TGI (RPMI-8226 [10]): 0.331 µM
GI50 [11]: 0.437 µM
LC50 [11]: 4.57 µM
growth at 0.01 µM [11]: 110%
TGI [11]: 1.45 µM
GI50 (SF-268 [12]): 0.431 µM
TGI (SF-268 [12]): 2.15 µM
CC50 (SF-268 [12]): 14.4 µM
GI50 [13]: 0.437 µM
LC50 [13]: 75.9 µM
growth at 0.01 µM [13]: 104%
TGI [13]: 10.2 µM
growth at 0.1 µM [14]: 94%
growth at 0.1 µM (COLO 205): 106%
GI50 (NCI-H322M): 4.68 µM
LC50 (NCI-H322M): > 100 µM
growth at 0.01 µM (NCI-H322M): 102%
TGI (NCI-H322M): 22.9 µM
GI50 (A498 [15]): 1.86 µM
LC50 (A498 [15]): 8.71 µM
growth at 0.01 µM (A498 [15]): 96%
TGI (A498 [15]): 4.07 µM
growth at 0.1 µM (SF-268 [16]): 100%
growth at 100 µM (CAKI-1 [17]): -57%
growth at 0.1 µM (MDA-MB-231): 97%
GI50 (A549): 2.86 µM
TGI (A549): 14.6 µM
CC50 (A549): > 100 µM
growth at 0.1 µM (NCI-H23): 100%
growth at 1 µM (HT-29 [18]): -22%
